Assay results as given in PMC10610214 (Pharmaceuticals, 2023).

Experiments:
AChE (from electric eel) = molecular target: T1, AChE (from electric eel) (Electrophorus electricus, UniProt O42275); test: biochemical; settings: for IC50: AChE from electric eel, mean ± SD of three experiments, read-out: AChE Inhibition (IC50)
T1 construct: AChE (from electric eel); purchased Sigma Chemical Company (St. Louis, MO, USA)
Method: (§1) The ChE inhibitory activity of the test compounds was determined using the modified Ellman’s method. The compounds were dissolved in DMSO (10 mmol/L) and then diluted with PB (phosphate buffer) solution to attain a range of final concentrations. […] Briefly, 100 μL of different concentrations of the test or standard compounds and 100 μL of AChE/BuChE (0.5 U/mL) were added into 48-well plates and then co-incubated at 37 °C for 30 min. […] All concentrations mentioned are final.

[1] = molecular target: T2, BuChE (from equine serum) (Equus caballus, UniProt P81908); test: biochemical; settings: mean ± SD of three experiments, read-out: BuChE Inhibition (IC50)
T2 construct: BuChE (from equine serum); purchased Sigma Chemical Company (St. Louis, MO, USA); host or cells: equine serum
T2 sequence (P81908 whole entry): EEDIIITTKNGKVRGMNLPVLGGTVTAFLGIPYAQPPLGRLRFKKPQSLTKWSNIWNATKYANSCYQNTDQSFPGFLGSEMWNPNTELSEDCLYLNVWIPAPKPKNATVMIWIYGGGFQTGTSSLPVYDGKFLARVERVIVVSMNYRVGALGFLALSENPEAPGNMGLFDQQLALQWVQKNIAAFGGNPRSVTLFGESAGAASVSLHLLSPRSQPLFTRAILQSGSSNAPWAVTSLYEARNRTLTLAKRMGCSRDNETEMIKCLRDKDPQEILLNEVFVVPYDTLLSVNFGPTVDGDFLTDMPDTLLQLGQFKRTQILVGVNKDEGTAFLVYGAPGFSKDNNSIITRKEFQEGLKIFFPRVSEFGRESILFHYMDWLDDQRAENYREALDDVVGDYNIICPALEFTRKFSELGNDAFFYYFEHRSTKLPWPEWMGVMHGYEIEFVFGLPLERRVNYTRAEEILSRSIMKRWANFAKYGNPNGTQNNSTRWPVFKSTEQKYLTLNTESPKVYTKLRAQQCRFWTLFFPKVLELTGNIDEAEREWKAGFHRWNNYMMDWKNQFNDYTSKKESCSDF
Method: as §1

H2O2-induced PC12 cells = test: Neuroprotection against H2O2-induced PC12 cell injury (MTT); type: cell-based; settings: H2O2 250 μM, mean ± SEM
Method: Neuroprotection assay is similar to cytotoxicity. Oxidative cellular damage caused by H2O2 has become one of the important methods to study oxidative damage in neural cells. PC12 cells were seeded into a 96-well plate at a density of 5.0 × 10^3 cells per well. After the cells were incubated overnight, the old medium was discarded. […] After incubating overnight, 20 μL of MTT solution (5 mg/mL, Sigma-Aldrich) was added per well, and the cells were incubated for an additional 4 h. Afterwards, the supernatant was removed and 150 μL of DMSO was added. The 96-well plate was placed on the shaker for 10–15 min, and then the absorbance at 492 nm was measured by a microplate reader.

PC12 cells = test: Cytotoxicity in PC12 cells (MTT); type: cell-based
Method: The cytotoxicity and neuroprotective effects of the compounds on PC12 cells were evaluated by MTT assay. PC12 cells were seeded into a 96-well plate at a density of 5.0 × 10^3 cells per well. After the cells were incubated overnight, the old medium was discarded. The cells were incubated for another 24 h with fresh medium containing compounds at a concentration of 30 or 50 μM. A total of 20 μL of MTT solution (5 mg/mL, Sigma-Aldrich, Shanghai, China) was then added per well, and the cells were incubated for an additional 4 h. Afterwards, the supernatant was removed and 150 μL of DMSO was added to solubilize formazan crystals. The 96-well plate was placed on the shaker for 10–15 min, and then the absorbance at 492 nm was measured by a microplate reader.

T1 sequence (O42275 24-633): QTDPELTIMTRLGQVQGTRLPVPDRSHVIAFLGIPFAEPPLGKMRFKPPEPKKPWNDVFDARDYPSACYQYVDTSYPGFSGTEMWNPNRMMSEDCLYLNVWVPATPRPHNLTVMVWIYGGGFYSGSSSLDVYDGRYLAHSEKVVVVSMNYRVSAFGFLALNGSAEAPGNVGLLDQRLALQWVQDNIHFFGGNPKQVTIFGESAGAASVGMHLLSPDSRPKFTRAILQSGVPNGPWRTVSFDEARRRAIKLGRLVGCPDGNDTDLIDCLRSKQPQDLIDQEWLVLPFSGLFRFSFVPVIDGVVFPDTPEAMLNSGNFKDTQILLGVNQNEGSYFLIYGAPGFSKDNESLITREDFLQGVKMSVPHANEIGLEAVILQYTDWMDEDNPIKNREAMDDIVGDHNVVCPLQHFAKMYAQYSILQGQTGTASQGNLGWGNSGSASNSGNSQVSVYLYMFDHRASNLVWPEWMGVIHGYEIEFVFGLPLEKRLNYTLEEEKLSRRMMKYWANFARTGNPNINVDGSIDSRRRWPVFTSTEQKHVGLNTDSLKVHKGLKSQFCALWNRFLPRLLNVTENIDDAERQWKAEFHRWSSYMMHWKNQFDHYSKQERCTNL

Structure (SMILES) | IC50 (AChE (from electric eel)) [µM] | IC50 [1] [µM] | H2O2-Induced PC12 Cell Viability (% of Control) (H2O2-induced PC12 cells; compound 10 μM) | H2O2-Induced PC12 Cell Viability (% of Control) (H2O2-induced PC12 cells; compound 30 μM) | Cell Viability (% of Control) (PC12 cells; compound 30 μM) | Cell Viability (% of Control) (PC12 cells; compound 50 μM) | Selective Index, IC50 (BChE)/IC50 (AChE) (AChE (from electric eel); AChE selectivity index)
COc1ccc(S(=O)(=O)Nc2ccc3c(c2)C(=O)c2nc4ccccc4c(=O)n2-3)c(OC)c1 [4l] | 18.6 ± 1.77 | > 50 | 36.35 ± 1.6 % of Control | 39.84 ± 2.8 % of Control | 100.2 ± 3.1 % of Control | 99.8 ± 2.7 % of Control | –
O=C1c2cc(NS(=O)(=O)c3ccc(OC(F)(F)F)cc3)ccc2-n2c1nc1ccccc1c2=O [4m] | 7.75 ± 0.21 | 10.2 ± 1.24 | 37.89 ± 4.3 % of Control | 44.98 ± 2.5 % of Control | 99.6 ± 0.8 % of Control | 99.3 ± 2.1 % of Control | –
O=C1c2cc(NS(=O)(=O)c3ccccc3OC(F)(F)F)ccc2-n2c1nc1ccccc1c2=O [4n] | 5.92 ± 0.56 | 4.93 ± 0.35 | 46.53 ± 1.2 % of Control | 52.84 ± 1.8 % of Control | 99.9 ± 0.7 % of Control | 99.7 ± 1.8 % of Control | –
O=C1c2cc(NS(=O)(=O)c3ccccc3C(F)(F)F)ccc2-n2c1nc1ccccc1c2=O [4o] | 2.45 ± 0.25 | 8.61 ± 1.2 | 42.32 ± 0.7 % of Control | 50.5 ± 0.5 % of Control | 99.6 ± 2.7 % of Control | 98.2 ± 1.7 % of Control | 3.5
O=C1c2cc(NS(=O)(=O)c3c(Cl)cccc3Cl)ccc2-n2c1nc1ccccc1c2=O [4p] | 0.62 ± 0.09 | > 50 | 48.49 ± 4.5 % of Control | 65.6 ± 2.2 % of Control | 99.6 ± 2.7 % of Control | 99.3 ± 2.9 % of Control | –
O=C1c2ccccc2-n2c1nc1ccc(NS(=O)(=O)c3ccccc3)cc1c2=O [8a] | 14 ± 1.67 | > 50 | 39.65 ± 3.1 % of Control | 50.98 ± 1.8 % of Control | 100.1 ± 1.5 % of Control | 99.8 ± 1.7 % of Control | –
Cc1ccc(S(=O)(=O)Nc2ccc3nc4n(c(=O)c3c2)-c2ccccc2C4=O)cc1 [8b] | 4.55 ± 0.8 | > 50 | 42.01 ± 1.7 % of Control | 51.37 ± 2.1 % of Control | 101.2 ± 3.1 % of Control | 99.8 ± 2.4 % of Control | –
CC(C)(C)c1ccc(S(=O)(=O)Nc2ccc3nc4n(c(=O)c3c2)-c2ccccc2C4=O)cc1 [8c] | 15.8 ± 2.6 | > 50 | 39.10 ± 4.5 % of Control | 49.64 ± 4.1 % of Control | 98.4 ± 1.9 % of Control | 96.7 ± 1.9 % of Control | –
CC(C)c1cc(C(C)C)c(S(=O)(=O)Nc2ccc3nc4n(c(=O)c3c2)-c2ccccc2C4=O)c(C(C)C)c1 [8d] | > 50 | > 50 | 39.65 ± 5.2 % of Control | 53.26 ± 1.4 % of Control | 99.8 ± 0.7 % of Control | 98.7 ± 2.6 % of Control | –
O=C1c2ccccc2-n2c1nc1ccc(NS(=O)(=O)c3ccc(Br)cc3)cc1c2=O [8e] | > 50 | > 50 | 41.78 ± 1.2 % of Control | 55.86 ± 0.9 % of Control | 99.8 ± 0.7 % of Control | 99.7 ± 3.1 % of Control | –
O=c1c(O)c(-c2ccc(O)c(O)c2)oc2cc(O)cc(O)c12 [Quercetin, reference compound] | – | – | 55.21 ± 1.6 % of Control | 63.27 ± 2.1 % of Control | 99.6 ± 1.1 % of Control | 99.5 ± 1.3 % of Control | –
